Data on 30 compounds can be found in patent EP0811615A1, “1-Aryl-5-(substituted alkyl (thio) amido) pyrazoles and their use as pesticides” (RHONE-POULENC AGROCHIMIE, priority 1996, dated 1997).

By mortality is commonly meant the share of the test organisms that died.

Assay type in all cases: in vivo
Assay [1] has as its system southern armyworm. Description: Southern armyworm foliar spray test on bean plants. The settings on record: Spodoptera eridania, 120 h, read-out: pest mortality SAW. The method, then:
(§1) For mite, aphid, southern armyworm, Mexican bean beetle, and tobacco budworm tests, a solution or suspension was prepared by adding 10 mg of the test compound to a solution of 160 mg of dimethylformamide, 838 mg of acetone, 2 mg of a 3:1 ratio of Triton X-172 : Triton X-152 (respectively, mainly anionic and nonionic low foam emulsifiers which are each anhydrous blends of alkylaryl polyether alcohols with organic sulfonates), and […] of water. The result was a concentration of 100 ppm of the test compound.
(§2) Southern armyworm: Potted bean plants, were placed on a revolving turntable and sprayed with 100 ml of the 100 ppm test compound formulation by use of a DeVilbiss spray gun set at 40 psig air pressure. As an untreated control, 100 ml of a water-acetone-DMF-emulsifier solution, containing no test compound, were also sprayed on plants. A treated control with a commercial technical compound, either cypermethrin or sulprofos, formulated in the same manner, was tested as a standard. When dry, the leaves were placed in plastic cups lined with moistened filter paper. Five randomly selected second instar southern armyworm larvae were introduced into each cup which was closed and held for five days. Larvae which were unable to move the length of the body, even upon stimulation by prodding, were considered dead.

The subject of assay [2] is housefly. The experiment in a line: House fly bait test. The note with it: Musca domestica, read-out: pest mortality HF. The text has this: For housefly tests, the formulation was initially prepared in a similar manner to the above, but in 16.3 g of water with corresponding adjustment of other components, providing a 200 ppm concentration. Final dilution with an equal volume of a 20% by weight aqueous solution of sucrose provided a 100 ppm concentration of the test compound. When necessary, sonication was provided to insure complete dispersion.
House fly: Four to six day old adult house flies were reared according to the specifications of the Chemical Specialties Manufacturing Association (Blue Book, McNair-Dorland Co., N.Y. 1954; pages 243-244, 261) under controlled conditions. The flies were immobilized by anesthetizing with carbon dioxide and twenty five immobilized individuals, males and females, were transferred to a cage consisting of a standard food strainer and a wrapping-paper-covered surface. Ten ml of the 100 ppm test compound formulation were added to a soufflé cup containing an absorbent cotton pad. As an untreated control, 10 ml of a water-acetone-DMF-emulsifier-sucrose solution, containing no test compound, were applied in a similar manner. A treated control with a commercial technical compound, malathion, formulated in the same manner, was tested as a standard. The bait cup was introduced inside the food strainer prior to admitting the anesthetized flies.

In assay [3] the test system is tobacco budworm. Description: Tobacco budworm foliar spray test on cotton plants. The settings on record: Heliothis virescens, 120 h, read-out: pest mortality TBW. The method, then: as §1
Tobacco budworm: Potted cotton plants were placed on a revolving turntable and sprayed with 100 ml of the 100 ppm test compound formulation by use of a DeVilbiss spray gun set at 40 psig air pressure. As an untreated control, 100 ml of a water-acetone-DMF-emulsifier solution, containing no test compound, were also sprayed on plants. A treated control with a commercial technical compound, either cypermethrin or sulprofos, formulated in the same manner, was tested as a standard. When dry, the leaves were placed in plastic dishes containing a piece of filter paper and a moistened dental wick. One randomly selected second instar tobacco budworm larva was then introduced into each cup which was closed and held for five days. Larvae unable to move the length of their body, even upon stimulation by prodding, were considered dead.

Assay [4] has as its system Mexican bean beetle. The experiment in a line: Mexican bean beetle foliar spray test on bean plants. The note with it: Epilachna varivestis, 120 h, read-out: pest mortality MBB. The method, then:
as §1
as §2, with “Mexican bean beetle:” for “Southern armyworm:”, “plants” for “plants,”, “formulation, sufficient to wet the plants to runoff,” for “formulation”, “Mexican bean beetle” for “southern armyworm”

The mark [5] stands for this setting: foliar application at 100 ppm, second instar larvae, held five days.
The mark [6] stands for this setting: bait application at 100 ppm, adult flies, after 24 hours.

Molecules are shown by their SMILES. Read-outs that look alike come from different tables or passages of the source.

On to `CCC(OC)C(=O)Nc1c(SC(F)(Cl)Cl)c(C#N)nn1-c1c(Cl)cc(C(F)(F)F)cc1Cl` (stereo not shown) [Compound 37], for which the mortality at 100 ppm in assay [1] (setting [5]), in assay [2] (setting [6]) and in assay [3] (setting [5]) was 70 to 100% each time.
`CC(C)COC(C)C(=O)Nc1c(SC(F)(F)F)c(C#N)nn1-c1c(Cl)cc(C(F)(F)F)cc1Cl` (stereo not shown) [Compound 43]: the mortality at 100 ppm in assay [1] (setting [5]), in assay [2] (setting [6]) and in assay [3] (setting [5]) was 70 to 100% each time.
In the case of `COC(C)C(=O)Nc1c(SC(F)(Cl)Cl)c(C#N)nn1-c1c(Cl)cc(C(F)(F)F)cc1Cl` (stereo not shown) [Compound 26], the mortality at 100 ppm in assay [1] (setting [5]), in assay [2] (setting [6]) and in assay [3] (setting [5]) was 70 to 100% in each case.
In the case of `CCC(OC)C(=O)Nc1c(SC(F)(F)F)c(C#N)nn1-c1c(Cl)cc(C(F)(F)F)cc1Cl` (stereo not shown) [Compound 38], the mortality at 100 ppm in assay [1] (setting [5]), in assay [2] (setting [6]) and in assay [3] (setting [5]) was 70 to 100% throughout.
With `CCOC(CC)C(=O)Nc1c(SC(F)(F)F)c(C#N)nn1-c1c(Cl)cc(C(F)(F)F)cc1Cl` (stereo not shown) [Compound 40], the mortality at 100 ppm in assay [1] (setting [5]) and in assay [2] (setting [6]) was 70 to 100% each time.
For `CCOC(C)C(=O)Nc1c(SC(F)(Cl)Cl)c(C#N)nn1-c1c(Cl)cc(C(F)(F)F)cc1Cl` (stereo not shown) [Compound 45], the mortality at 100 ppm in assay [1] (setting [5]), in assay [4] (setting [5]), in assay [2] (setting [6]) and in assay [3] (setting [5]) was 70 to 100% throughout.
`COCCOCC(=O)Nc1c(SC(F)(F)F)c(C#N)nn1-c1c(Cl)cc(C(F)(F)F)cc1Cl` [Compound 3]: the mortality at 100 ppm in assay [1] (setting [5]), in assay [4] (setting [5]), in assay [2] (setting [6]) and in assay [3] (setting [5]) was 70 to 100% throughout.
On to `COCC(=O)Nc1c([S+]([O-])C(F)F)c(C#N)nn1-c1c(Cl)cc(C(F)(F)F)cc1Cl` (stereo not shown) [Compound 19], for which the mortality at 100 ppm in assay [1] (setting [5]) and in assay [2] (setting [6]) was 70 to 100% throughout.
In the case of `COCCOCCOCC(=O)Nc1c([S+]([O-])C(F)(F)F)c(C#N)nn1-c1c(Cl)cc(C(F)(F)F)cc1Cl` (stereo not shown) [Compound 10], in assay [1] (setting [5]), the mortality at 100 ppm was 70 to 100%.
For `COCC(=O)Nc1c(SC(F)(F)F)c(C#N)nn1-c1c(Cl)cc(C(F)(F)F)cc1Cl` [Compound 1, 1-(2,6-dichloro-4-trifluoromethylphenyl)-3-cyano-4-trifluoromethylsulfenyl-5-(methoxyacetamido)pyrazole], the mortality at 100 ppm in assay [1] (foliar), in assay [4] (foliar), in assay [2] (24 h) and in assay [3] (foliar) was 70 to 100% throughout.
On to `COCC(=O)Nc1c([N+](=O)[O-])c(Br)nn1-c1c(Cl)cc(C(F)(F)F)cc1Cl` [Compound 49], for which the mortality at 100 ppm in assay [1] (setting [5]) and in assay [3] (setting [5]) was 70 to 100% each time.
`CCCC(OCC)C(=O)Nc1c(SC(F)(F)F)c(C#N)nn1-c1c(Cl)cc(C(F)(F)F)cc1Cl` (stereo not shown) [Compound 41]: the mortality at 100 ppm in assay [1] (setting [5]) and in assay [2] (setting [6]) was 70 to 100% each time.
In the case of `COCCOCC(=O)Nc1c(SC(F)(Cl)Cl)c(C#N)nn1-c1c(Cl)cc(C(F)(F)F)cc1Cl` [Compound 16], the mortality at 100 ppm in assay [1] (setting [5]), in assay [2] (setting [6]) and in assay [3] (setting [5]) was 70 to 100% in each case.
As to `COC(C)(C)C(=O)Nc1c(SC(F)(F)F)c(C#N)nn1-c1c(Cl)cc(C(F)(F)F)cc1Cl` [Compound 30], the mortality at 100 ppm in assay [1] (setting [5]) and in assay [3] (setting [5]) was 70 to 100% in each case.
In the case of `CCCCCCOCC(=O)Nc1c(SC(F)(F)F)c(C#N)nn1-c1c(Cl)cc(C(F)(F)F)cc1Cl` [Compound 33], in assay [3] (setting [5]), the mortality at 100 ppm fell in the range of 70 to 100%.
Take `CC(C)OCC(=O)Nc1c(SC(F)(F)F)c(C#N)nn1-c1c(Cl)cc(C(F)(F)F)cc1Cl` [Compound 20]: the mortality at 100 ppm in assay [1] (setting [5]), in assay [4] (setting [5]), in assay [2] (setting [6]) and in assay [3] (setting [5]) was 70 to 100% in each case.
Regarding `COCCOCCOCC(=O)Nc1c(SC(F)(F)F)c(C#N)nn1-c1c(Cl)cc(C(F)(F)F)cc1Cl` [Compound 4], the mortality at 100 ppm in assay [1] (setting [5]), in assay [2] (setting [6]) and in assay [3] (setting [5]) was 70 to 100% each time.
In the case of `COC(=O)CCC(=O)Nc1c(SC(F)(F)F)c(C#N)nn1-c1c(Cl)cc(C(F)(F)F)cc1Cl` [Compound 5], the mortality at 100 ppm in assay [1] (setting [5]), in assay [2] (setting [6]) and in assay [3] (setting [5]) was 70 to 100% in each case.
Regarding `CCCCCCCCCCCCOCC(=O)Nc1c(SC(F)(F)F)c(C#N)nn1-c1c(Cl)cc(C(F)(F)F)cc1Cl` [Compound 36], the mortality at 100 ppm in assay [2] (setting [6]) was in the range of 70 to 100%.
Turning to `COC(C(=O)Nc1c(SC(F)(Cl)Cl)c(C#N)nn1-c1c(Cl)cc(C(F)(F)F)cc1Cl)C(C)C` (stereo not shown) [Compound 27], the mortality at 100 ppm in assay [1] (setting [5]) and in assay [3] (setting [5]) was 70 to 100% in each case.
With `CCOCC(=O)Nc1c(SC(F)(Cl)Cl)c(C#N)nn1-c1c(Cl)cc(C(F)(F)F)cc1Cl` [Compound 15], the mortality at 100 ppm in assay [1] (setting [5]), in assay [2] (setting [6]) and in assay [3] (setting [5]) was 70 to 100% each time.
On to `COC(C(=O)Nc1c([S+]([O-])C(F)(Cl)Cl)c(C#N)nn1-c1c(Cl)cc(C(F)(F)F)cc1Cl)C(C)C` (stereo not shown) [Compound 29], for which the mortality at 100 ppm in assay [1] (setting [5]) and in assay [4] (setting [5]) was 70 to 100% throughout.
As for `COCC(=O)Nc1c(SC(F)(Cl)Cl)c(C#N)nn1-c1c(Cl)cc(C(F)(F)F)cc1Cl` [Compound 14], the mortality at 100 ppm in assay [1] (setting [5]), in assay [2] (setting [6]) and in assay [3] (setting [5]) was 70 to 100% in each case.
Turning to `COC(C(=O)Nc1c(SC(F)(F)F)c(C#N)nn1-c1c(Cl)cc(C(F)(F)F)cc1Cl)C(C)C` (stereo not shown) [Compound 23], the mortality at 100 ppm in assay [1] (setting [5]) and in assay [3] (setting [5]) was 70 to 100% each time.
For the compound `CC(C)COCC(=O)Nc1c(SC(F)(F)F)c(C#N)nn1-c1c(Cl)cc(C(F)(F)F)cc1Cl` [Compound 35], the mortality at 100 ppm in assay [1] (setting [5]), in assay [4] (setting [5]) and in assay [2] (setting [6]) was 70 to 100% in each case.
Regarding `C#CCN(C(=O)COC)c1c(SC(F)(F)F)c(C#N)nn1-c1c(Cl)cc(OC(F)(F)F)cc1Cl` [Compound 48], the mortality at 100 ppm in assay [1] (setting [5]), in assay [2] (setting [6]) and in assay [3] (setting [5]) was 70 to 100% throughout.
For `CC(C)COC(C)C(=O)Nc1c([S+]([O-])C(F)(F)F)c(C#N)nn1-c1c(Cl)cc(C(F)(F)F)cc1Cl` (stereo not shown) [Compound 44], the mortality at 100 ppm in assay [1] (setting [5]), in assay [4] (setting [5]) and in assay [2] (setting [6]) was 70 to 100% in each case.
As to `COC(C)C(=O)Nc1c(SC(F)(F)F)c(C#N)nn1-c1c(Cl)cc(C(F)(F)F)cc1Cl` (stereo not shown) [Compound 21], the mortality at 100 ppm in assay [1] (setting [5]), in assay [2] (setting [6]) and in assay [3] (setting [5]) was 70 to 100% throughout.
Take `CCCCOCC(=O)Nc1c(SC(F)(F)F)c(C#N)nn1-c1c(Cl)cc(C(F)(F)F)cc1Cl` [Compound 6]: the mortality at 100 ppm in assay [1] (setting [5]), in assay [2] (setting [6]) and in assay [3] (setting [5]) was 70 to 100% in each case.
On to `COC(C)(C)C(=O)Nc1c(SC(F)(Cl)Cl)c(C#N)nn1-c1c(Cl)cc(C(F)(F)F)cc1Cl` [Compound 31], for which the mortality at 100 ppm in assay [1] (setting [5]) and in assay [3] (setting [5]) was 70 to 100% throughout.
